Reference: patent publication US11590139B2, “Substituted aminopurine compounds, compositions thereof, and methods of treatment therewith” (Signal Pharmaceuticals, LLC, priority 2014, dated 2023)
Where two headings read alike, the source gives them in different places.

System: Lox-IMVI melanoma cell line
Experiment: Lox-IMVI anti-proliferative assay (growth inhibition, Cell Titer-Glo)
Format: cell-based, human
Conditions: Homo sapiens
Summary of the method: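 Cells grown in RPMI + 10% FBS were exposed to compound at 0.5 nM to 10 μM (10-point, 3-fold dilution, duplicate, 0.2% DMSO final) for 72 h at 37 °C, 5% CO2. Viability was read by ATP luminescence at t0 and 72 h. IC50 came from a four-parameter logistic fit normalized to DMSO control.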

[1] = Lox-IMVI melanoma cell line, anti-proliferative assay, read-out: Activity (IC50 activity level)
[2] = Lox-IMVI anti-proliferative assay, IC50 activity level, read-out: Activity
[3] = IC50 activity level in the cell-based Lox-IMVI anti-proliferative assay, read-out: Activity

IC50 [1] [nM]	IC50 [3] [nM]	SMILES	further results
> 1000	–	NC(=O)[C@H]1CC[C@@H](n2c(Nc3c(Cl)cc(Cl)cc3Cl)nc3cnc(N[C@@H]4CCCN(Cc5ccccc5)C4)nc32)CC1 [Example 752, (1S,4s)-4-(2-((R)-1-benzylpiperidin-3-ylamino)-8-(2,4,6-trichlorophenylamino)-9H-purin-9-yl)cyclohexanecarboxamide]	–
–	–	NC(=O)[C@H]1CC[C@@H](n2c(Nc3c(Cl)cc(F)cc3Cl)nc3cnc(N[C@H]4CCC(F)(F)C4)nc32)CC1 [Example 585, (1R,4s)-4-(8-(2,6-dichloro-4-fluorophenylamino)-2-((S)-3,3-difluorocyclopentylamino)-9H-purin-9-yl)cyclohexanecarboxamide]	IC50 [2]: 500 to 1000 nM
–	> 1000	NC(=O)[C@H]1CC[C@@H](n2c(Nc3c(F)cc(F)cc3Cl)nc3cnc(N[C@@H]4CCCOC4)nc32)CC1 [Example 187, (1S,4s)-4-(8-(2-chloro-4,6-difluorophenylamino)-2-((R)-tetrahydro-2H-pyran-3-ylamino)-9H-purin-9-yl)cyclohexanecarboxamide]	–
–	–	C[C@]1(C(N)=O)CC[C@@H](n2c(Nc3c(Cl)cc(Cl)cc3Cl)nc3cnc(N[C@@H]4CCC[C@H](O)C4)nc32)CC1 [Example 565, (1S,4s)-4-(2-((1R,3S)-3-hydroxycyclohexylamino)-8-(2,4,6-trichlorophenylamino)-9H-purin-9-yl)-1-methylcyclohexanecarboxamide]	IC50 [2]: < 250 nM
–	> 1000	C[C@@H](CO)Nc1ncc2nc(Nc3c(F)cc(F)cc3F)n([C@H]3CC[C@@H](C(N)=O)CC3)c2n1 [Example 164, (1R,4s)-4-(2-((S)-1-hydroxypropan-2-ylamino)-8-(2,4,6-trifluorophenylamino)-9H-purin-9-yl)cyclohexanecarboxamide]	–
> 1000	–	Cc1ccc(S(=O)(=O)N2CCC[C@@H](Nc3ncc4nc(Nc5c(Cl)cc(F)cc5Cl)n([C@H]5CC[C@@H](C(N)=O)CC5)c4n3)C2)cc1 [Example 794, (1S,4s)-4-(8-(2,6-dichloro-4-fluorophenylamino)-2-((R)-1-tosylpiperidin-3-ylamino)-9H-purin-9-yl)cyclohexanecarboxamide]	–
–	> 1000	CC(=O)N1CCC(Nc2ncc3nc(Nc4c(F)cc(Cl)cc4Cl)n([C@H]4CC[C@@H](C(N)=O)CC4)c3n2)CC1 [Example 198, (1s,4s)-4-(2-(1-acetylpiperidin-4-ylamino)-8-(2,4-dichloro-6-fluorophenylamino)-9H-purin-9-yl)cyclohexanecarboxamide]	–
> 1000	–	CC(C)N1CCC[C@@H](Nc2ncc3nc(Nc4c(Cl)cc(C#N)cc4Cl)n([C@H]4CC[C@@H](C(N)=O)CC4)c3n2)C1 [Example 739, (1S,4s)-4-(8-(2,6-dichloro-4-cyanophenylamino)-2-((R)-1-isopropylpiperidin-3-ylamino)-9H-purin-9-yl)cyclohexanecarboxamide]	–
250 to 500	–	C[C@]1(C(N)=O)CC[C@@H](n2c(Nc3c(F)cc(C#N)cc3Cl)nc3cnc(N[C@H]4CC[C@H](O)C4)nc32)CC1 [Example 649, (1R,4s)-4-(8-(2-chloro-4-cyano-6-fluorophenylamino)-2-((1S,3S)-3-hydroxycyclopentylamino)-9H-purin-9-yl)-1-methylcyclohexanecarboxamide]	–
–	–	C[C@]1(O)CCC[C@@H](Nc2ncc3nc(Nc4c(Cl)cccc4Cl)n([C@H]4CC[C@@H](C(N)=O)CC4)c3n2)C1 [Example 424, (1S,4s)-4-(8-(2,6-dichlorophenylamino)-2-((1R,3S)-3-hydroxy-3-methylcyclohexylamino)-9H-purin-9-yl)cyclohexanecarboxamide]	IC50 [2]: > 1000 nM
–	> 1000	NC(=O)[C@H]1CC[C@@H](n2c(Nc3c(F)cc(Cl)cc3F)nc3cnc(N[C@@H]4CCCOC4)nc32)CC1 [Example 188, (1S,4s)-4-(8-(4-chloro-2,6-difluorophenylamino)-2-((R)-tetrahydro-2H-pyran-3-ylamino)-9H-purin-9-yl)cyclohexanecarboxamide]	–
–	–	NC(=O)[C@H]1CC[C@@H](n2c(Nc3c(Cl)cc(F)cc3Cl)nc3cnc(N[C@H]4CCCC[C@H]4O)nc32)CC1 [Example 516, (1R,4s)-4-(8-(2,6-dichloro-4-fluorophenylamino)-2-((1S,2R)-2-hydroxycyclohexylamino)-9H-purin-9-yl)cyclohexanecarboxamide]	IC50 [2]: > 1000 nM
< 250	–	C[C@]1(C(N)=O)CC[C@@H](n2c(Nc3c(F)cc(Cl)cc3F)nc3cnc(N[C@H]4CCOC[C@H]4F)nc32)CC1 [Example 721, (1R,4s)-4-(8-(4-chloro-2,6-difluorophenylamino)-2-((3S,4S)-3-fluorotetrahydro-2H-pyran-4-ylamino)-9H-purin-9-yl)-1-methylcyclohexanecarboxamide]	–
–	> 1000	NC(=O)[C@H]1CC[C@@H](n2c(Nc3cccc(Cl)c3F)nc3cnc(NC4COCC4O)nc32)CC1 (stereo partly shown) [Example 192, (1s,4s)-4-(8-(3-chloro-2-fluorophenylamino)-2-(4-hydroxytetrahydrofuran-3-ylamino)-9H-purin-9-yl)cyclohexanecarboxamide]	–
–	500 to 1000	NC(=O)[C@H]1CC[C@@H](n2c(Nc3c(F)ccc(Cl)c3F)nc3cnc(NC4CCC(F)(F)CC4)nc32)CC1 [Example 291, (1s,4s)-4-(8-(3-chloro-2,6-difluorophenylamino)-2-(4,4-difluorocyclohexylamino)-9H-purin-9-yl)cyclohexanecarboxamide]	–
–	–	C[C@]1(C(N)=O)CC[C@@H](n2c(Nc3c(Cl)cc(C#N)cc3Cl)nc3cnc(N[C@@H]4CCC[C@H](O)C4)nc32)CC1 [Example 569, (1S,4s)-4-(8-(2,6-dichloro-4-cyanophenylamino)-2-((1R,3S)-3-hydroxycyclohexylamino)-9H-purin-9-yl)-1-methylcyclohexanecarboxamide]	IC50 [2]: < 250 nM
–	> 1000	NC(=O)[C@H]1CC[C@@H](n2c(Nc3c(F)cccc3F)nc3cnc(N[C@H]4CCOC[C@@H]4F)nc32)CC1 [Example 247, (1R,4s)-4-(8-(2,6-difluorophenylamino)-2-((3R,4S)-3-fluorotetrahydro-2H-pyran-4-ylamino)-9H-purin-9-yl)cyclohexanecarboxamide]	–
< 250	–	N#Cc1cc(F)c(Nc2nc3cnc(N[C@@H]4CCC(F)(F)C4)nc3n2[C@H]2CC[C@@H](C(N)=O)CC2)c(Cl)c1 [Example 698, (1S,4s)-4-(8-(2-chloro-4-cyano-6-fluorophenylamino)-2-((R)-3,3-difluorocyclopentylamino)-9H-purin-9-yl)cyclohexanecarboxamide]	–
–	> 1000	NC(=O)[C@H]1CC[C@@H](n2c(Nc3ccc(F)c(F)c3F)nc3cnc(N[C@@H]4CCC[C@H]4O)nc32)CC1 [Example 264, (1S,4s)-4-(2-((1R,2R)-2-hydroxycyclopentylamino)-8-(2,3,4-trifluorophenylamino)-9H-purin-9-yl)cyclohexanecarboxamide]	–
–	> 1000	NC(=O)[C@H]1CC[C@@H](n2c(Nc3c(F)cc(Cl)cc3Cl)nc3cnc(N[C@@H]4CCCOC4)nc32)CC1 [Example 190, (1S,4s)-4-(8-(2,4-dichloro-6-fluorophenylamino)-2-((R)-tetrahydro-2H-pyran-3-ylamino)-9H-purin-9-yl)cyclohexanecarboxamide]	–
–	> 1000	NC(=O)[C@H]1CC[C@@H](n2c(Nc3c(F)cc(F)cc3F)nc3cnc(N[C@H]4CC[C@H](O)C4)nc32)CC1 [Example 331, (1R,4s)-4-(2-((1S,3S)-3-hydroxycyclopentylamino)-8-(2,4,6-trifluorophenylamino)-9H-purin-9-yl)cyclohexanecarboxamide]	–
< 250	–	C[C@]1(C(N)=O)CC[C@@H](n2c(Nc3c(Cl)cc(F)cc3Cl)nc3cnc(NC4CCOCC4)nc32)CC1 [Example 675, (1s,4s)-4-(8-(2,6-dichloro-4-fluorophenylamino)-2-(tetrahydro-2H-pyran-4-ylamino)-9H-purin-9-yl)-1-methylcyclohexanecarboxamide]	–
> 1000	–	NC(=O)[C@H]1CC[C@@H](n2c(Nc3c(F)cc(Cl)cc3F)nc3cnc(N[C@@H]4CCCN(C(=O)Nc5ccccc5)C4)nc32)CC1 [Example 782, (R)-3-(9-((1s,4S)-4-carbamoylcyclohexyl)-8-(4-chloro-2,6-difluorophenylamino)-9H-purin-2-ylamino)-N-phenylpiperidine-1-carboxamide]	–
–	> 1000	NC(=O)[C@H]1CC[C@@H](n2c(Nc3c(F)cc(F)cc3F)nc3cnc(N[C@H]4COC[C@@H]4O)nc32)CC1 [Example 311, (1R,4s)-4-(2-((3S,4R)-4-hydroxytetrahydrofuran-3-ylamino)-8-(2,4,6-trifluorophenylamino)-9H-purin-9-yl)cyclohexanecarboxamide]	–
–	> 1000	CS(=O)(=O)N1CCC(Nc2ncc3nc(Nc4ccc(Cl)cc4Cl)n([C@H]4CC[C@@H](C(N)=O)CC4)c3n2)CC1 [Example 299, (1s,4s)-4-(8-(2,4-dichlorophenylamino)-2-(1-(methylsulfonyl)piperidin-4-ylamino)-9H-purin-9-yl)cyclohexanecarboxamide]	–
> 1000	–	CS(=O)(=O)C1CC(Nc2ncc3nc(Nc4c(Cl)cc(Cl)cc4Cl)n([C@H]4CC[C@@H](C(N)=O)CC4)c3n2)C1 (stereo partly shown) [Example 729, (1s,4s)-4-(2-(3-(methylsulfonyl)cyclobutylamino)-8-(2,4,6-trichlorophenylamino)-9H-purin-9-yl)cyclohexanecarboxamide]	–
250 to 500	–	C[C@]1(C(N)=O)CC[C@@H](n2c(Nc3c(F)cc(F)cc3Cl)nc3cnc(N[C@H]4CC[C@H](O)C4)nc32)CC1 [Example 644, (1R,4s)-4-(8-(2-chloro-4,6-difluorophenylamino)-2-((1S,3S)-3-hydroxycyclopentylamino)-9H-purin-9-yl)-1-methylcyclohexanecarboxamide]	–
–	> 1000	NC(=O)[C@H]1CC[C@@H](n2c(Nc3c(F)cc(F)cc3F)nc3cnc(NC4COCC4O)nc32)CC1 (stereo partly shown) [Example 178, (1s,4s)-4-(2-(4-hydroxytetrahydrofuran-3-ylamino)-8-(2,4,6-trifluorophenylamino)-9H-purin-9-yl)cyclohexanecarboxamide]	–
